ChEMBL document CHEMBL4011591, “Discovery and pharmacological evaluation of a novel series of adamantyl cyanoguanidines as P2X7 receptor antagonists” (Eur J Med Chem, 2017)

Legend:
P2X purinoceptor 7 [1] = target: T1, P2X purinoceptor 7 (Homo sapiens, UniProt Q99572); test: Antagonist activity at P2X7 receptor in human THP1 cells assessed as inhibition of BzATP-induced YO-PRO-1 Iodide uptake measured every 30 secs for 1 hr by fluorescence assay; format: cell-based
T1 sequence (Q99572 whole entry): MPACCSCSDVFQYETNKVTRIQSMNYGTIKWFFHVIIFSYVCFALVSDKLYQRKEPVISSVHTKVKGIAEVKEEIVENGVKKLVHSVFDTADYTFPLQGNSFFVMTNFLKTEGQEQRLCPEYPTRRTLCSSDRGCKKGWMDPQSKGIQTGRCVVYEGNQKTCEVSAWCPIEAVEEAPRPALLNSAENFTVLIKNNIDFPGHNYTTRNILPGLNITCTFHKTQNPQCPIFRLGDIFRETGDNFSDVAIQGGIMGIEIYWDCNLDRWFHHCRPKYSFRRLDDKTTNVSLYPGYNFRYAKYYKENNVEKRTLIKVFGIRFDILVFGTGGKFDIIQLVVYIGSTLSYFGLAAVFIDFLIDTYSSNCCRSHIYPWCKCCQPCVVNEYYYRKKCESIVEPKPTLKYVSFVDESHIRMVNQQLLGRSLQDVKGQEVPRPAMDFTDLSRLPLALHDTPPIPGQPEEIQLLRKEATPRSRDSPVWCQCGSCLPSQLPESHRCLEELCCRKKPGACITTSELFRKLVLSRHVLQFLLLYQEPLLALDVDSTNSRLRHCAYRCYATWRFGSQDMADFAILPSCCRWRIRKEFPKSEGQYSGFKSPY

P2X purinoceptor 7 [2] = target: T1, P2X purinoceptor 7; test: Antagonist activity at P2X7 receptor in LPS-stimulated human THP1 cells assessed as inhibition of LPS/BzATP-induced IL-1beta release preincubated for 30 mins followed by BzATP addition measured after 30 mins by ELISA
[3] = target: T2, P2X purinoceptor 7 (Homo sapiens) (UniProt Q99572); test: Ratio of IC50 for P2X7 receptor in human THP1 cells assessed as inhibition of BzATP-induced YO-PRO-1 Iodide uptake to IC50 for P2X7 receptor in LPS-stimulated human THP1 cells assessed as inhibition of LPS/BzATP-induced IL-1beta release; format: cell-based
T2 sequence (whole entry): T1 sequence (Q99572 whole entry)

SMILES: N#C/N=C(\NCC12CC3CC(CC(C3)C1)C2)Nc1ccncc1
- IC50 (P2X purinoceptor 7 [1]): 0.417 µM

SMILES: N#C/N=C(\NCC12CC3CC(CC(C3)C1)C2)Nc1ccccn1
- IC50 (P2X purinoceptor 7 [1]): > 10 µM

SMILES: N#C/N=C(\NCCC12CC3CC(CC(C3)C1)C2)NCc1ccccc1
- IC50 (P2X purinoceptor 7 [1]): 3.02 µM

SMILES: N#C/N=C(/Nc1ccccc1)NC12CC3CC(CC(C3)C1)C2
- IC50 (P2X purinoceptor 7 [1]): 2.46 µM

SMILES: N#C/N=C(/NCc1ccccc1F)NCC12CC3CC(CC(C3)C1)C2
- IC50 (P2X purinoceptor 7 [1]): 0.501 µM

SMILES: N#C/N=C(\NCC12CC3CC(CC(C3)C1)C2)Nc1cccnc1
- IC50 (P2X purinoceptor 7 [1]): 0.214 µM

SMILES: COc1cccc(CN/C(=N/C#N)NCC23CC4CC(CC(C4)C2)C3)c1
- IC50 (P2X purinoceptor 7 [1]): 0.851 µM

SMILES: N#C/N=C(/NCc1ccncc1)NCC12CC3CC(CC(C3)C1)C2
- IC50 (P2X purinoceptor 7 [1]): 0.447 µM
- IC50 (P2X purinoceptor 7 [2]): 0.389 µM
- Ratio IC50 [3]: 1.2

SMILES: COc1ccccc1CN/C(=N/C#N)NCC12CC3CC(CC(C3)C1)C2
- IC50 (P2X purinoceptor 7 [1]): 0.562 µM

SMILES: N#C/N=C(/NCCc1ccccc1)NC12CC3CC(CC(C3)C1)C2
- IC50 (P2X purinoceptor 7 [1]): > 10 µM

SMILES: N#C/N=C(\NCC12CC3CC(CC(C3)C1)C2)Nc1cccc2ncccc12
- IC50 (P2X purinoceptor 7 [1]): 0.018 µM
- IC50 (P2X purinoceptor 7 [2]): 0.002 µM
- Ratio IC50 [3]: 9

SMILES: N#C/N=C(/NCc1ccccc1)NCC12CC3CC(CC(C3)C1)C2
- IC50 (P2X purinoceptor 7 [1]): 0.407 µM
- IC50 (P2X purinoceptor 7 [2]): 0.079 µM
- Ratio IC50 [3]: 5.2

SMILES: COc1ccccc1N/C(=N/C#N)NCC12CC3CC(CC(C3)C1)C2
- IC50 (P2X purinoceptor 7 [1]): 0.051 µM

SMILES: N#C/N=C(\NCC12CC3CC(CC(C3)C1)C2)Nc1ccccc1F
- IC50 (P2X purinoceptor 7 [1]): 0.058 µM
